Key:
rat splenic lymphocytes [1] = experiment: Rat splenic lymphocyte survival after labeling (Trypan blue exclusion test); type: cell-based; settings: Example 11, trypan blue
Description: (§1) A 400 g Sprague-Dawley rat was sacrificed to remove the spleen (1.133 g). The spleen was perfused with phosphate buffered saline to remove the lymphocytes. The lymphocytes in 10 mL PBS were split into two equal portions and each portion was layered onto 5 mL of Lympholyte-Rat (Cedar Lane Laboratories Limited, Ontario, Canada) in a separate 15 mL centrifuge tube. The tubes were centrifuged at 2700 rpm for 20 minutes at room temperature. The lymphoctyes appeared as a layer at the interface of the saline and Lympholyte-Rat layers. The saline layer was removed and discarded. The lymphocyte containing layer from each tube was removed and transferred to a single 50 mL Falcon tube. To this tube was added 10 mL saline and the tube centrifuged for 7 minutes at 1600 rpm. The supernatant was removed, the cells resuspended in 10 mL saline, and centrifuged at 1600 rpm for 7 minutes. The supernatant was removed and the cells suspended in 1 mL saline. Using a hemocytometer, a total of 5 million lymphocytes were counted. […] To these cells was added 20 ul of an ethanolic solution of 3-[4-[2-(N,N-dihexylamino)phenyl]ethyenyl]pyridino-E-1-[^125 I]-iodo-propene (15.6 uCi) dissolved in 500 ul of saline. The cells were place vertically on a Nutator rocking apparatus and rocked gently for 20 minutes at room temperature. […] The supernatant, cells, and labeling tube were counted for radioactivity. […]

[2] = as above; type: cell-based; settings: rat, splenic lymphocytes; Example 11, trypan blue; 12% dead before labeling; read-out: dead cells after labeling
Description: as §1

[3] = test system: sodium urate induced abscess in the stifle joint; experiment: Localization of labeled leukocytes in dogs having a sodium urate induced abscess in the stifle joint (aspirate, gamma camera images)
Description: Mixed leukocytes labeled with 4b and ^111 In-oxine labeled mixed leukocytes were compared in dogs having a sodium urate-induced inflammation in the left stifle joint. […]

rat splenic lymphocytes [4] = experiment: Lymphocyte labeling yield, rat splenic lymphocytes; type: cell-based
Description: (§2) Peripheral blood lymphocytes (PBLs) from dogs and rats as well as rat splenic lymphocytes were labeled in high yields with either 4a or 4b (Table 2). Viability of labeled lymphocytes was >90% both before and after radiolabeling (Trypan Blue exclusion test).
A 400 g Sprague-Dawley rat was sacrificed to remove the spleen (1.133 g). The spleen was perfused with phosphate buffered saline to remove the lymphocytes. The lymphocytes in 10 mL PBS were split into two equal portions and each portion was layered onto 5 mL of Lympholyte-Rat (Cedar Lane Laboratories Limited, Ontario, Canada) in a separate 15 mL centrifuge tube. The tubes were centrifuged at 2700 rpm for 20 minutes at room temperature. The lymphoctyes appeared as a layer at the interface of the saline and Lympholyte-Rat layers. The saline layer was removed and discarded. The lymphocyte containing layer from each tube was removed and transferred to a single 50 mL Falcon tube. To this tube was added 10 mL saline and the tube centrifuged for 7 minutes at 1600 rpm. The supernatant was removed, the cells resuspended in 10 mL saline, and centrifuged at 1600 rpm for 7 minutes. The supernatant was removed and the cells suspended in 1 mL saline. […] […] To these cells was added 20 ul of an ethanolic solution of 3-[4-[2-(N,N-dihexylamino)phenyl]ethyenyl]pyridino-E-1-[^125 I]-iodo-propene (15.6 uCi) dissolved in 500 ul of saline. The cells were place vertically on a Nutator rocking apparatus and rocked gently for 20 minutes at room temperature. The cells were then underlayered with 7.5 mL of saline and centrifuged at 1600 rpm for seven minutes to pellet the cells. The supernatant was removed, the cells resuspended in 10 mL saline, and transferred to a new tube. The supernatant, cells, and labeling tube were counted for radioactivity. The cells were centrifuged again at 1600 rpm for 7 minutes, the supernatant removed, and the cells resuspended. After the second centrifugation, 11.9uCi (77%) of ^131 I was bound to the lymphocytes. After labeling, 12% of the cells were dead by the trypan blue exclusion test.

mixed leukocytes = experiment: Mixed leukocyte labeling yield; type: cell-based, canine; settings: for Mixed leukocyte labeling yield: 125I labeled, average, 10-30 μCi, 250-325 Ci/mmol
Description: Labeling of mixed leukocytes (harvested from 20 mL canine blood) with 4a-d was performed using five different procedures: 1) labeling in Diluent C (a commercial non-ionic cell labeling media developed by Zynaxis Co. that is not approved for human use) after two saline washes of the cell pellet; 2) labeling in saline after two saline washes of the cell pellet; 3) labeling in saline with no saline washes of the cell pellet; 4 and 5) labeling in ether 10% or 100% platelet poor plasma (PPP).
Unwashed mixed leukocytes in 1.5 mL 10% PPP in saline were also tested. […]
This was evaporated to dryness under vacuum in a speed vac and reconstituted into 30 ul ethanol. Forty milliliters of canine blood was drawn into a 60 mL syringe containing 6.5 mL acetate-citrate-dextrose solution. To this was added 5.5 mL 2% methyl cellulose in saline. The contents of the syringe were gently mixed by several inversions of the syringe and the syringe placed vertically, needle end up, for 45 minutes to allow the red blood cells to settle. The plasma was drawn off and placed into a 50 mL Falcon tube. The tube was centrifuged at 1100 rpm for 15 minutes to pellet the leukocytes. The plasma was removed and the cells resuspended in 2 mL saline. In a 1 mL plastic microcentrifuge was placed 0.5 mL saline. […] The cells were then underlayered with 7.5 mL of platelet poor plasma and centrifuged at 1600 rpm for seven minutes to pellet the cells. The supernatant was removed, the cells resuspended in 10 mL saline, and transferred to a new tube. The supernatant, cells, and labeling tube were counted for radioactivity. The cells were centrifuged again at 1600 rpm for 7 minutes, the supernatant removed, and the cells resuspended.
A sample of canine blood (20 mL) was drawn into a 60 mL syringe containing 3 mL acetate-citrate-dextrose (ACD) solution. To this was added 3 mL 2% methyl cellulose in saline. The contents of the syringe were gently mixed by several inversions, and the syringe was then placed vertically, needle end up, for 45 min to allow the red blood cells to settle. The plasma was drawn off and transferred to a 50 mL Falcon tube. The tube was centrifuged at 1100 rpm for 15 min to pellet the leukocytes. The plasma was removed and the cells resuspended in 10 mL saline. The tube was centrifuged at 1600 rpm for 7 min, the supernatant removed, and the cells resuspended in 10 mL saline and recentrifuged at 1600 rpm for 7 min. The supernatant was then removed and the cells resuspended in 2 mL Diluent C. Into a 1 mL plastic microcentrifuge tube was placed 0.5 mL Diluent C. […] The indium complex in Diluent C was immediately added to the leukocytes and the cells were placed vertically on a Nutator rocking apparatus and rocked gently for 30 min at room temperature. The cells were then underlayered with 5 mL of platelet poor plasma and centrifuged at 1600 rpm for 7 min to pellet the cells. The supernatant was removed, the cells resuspended in 10 mL saline, and transferred to a new tube. The supernatant, cells, and labeling tube were counted for radioactivity. The cells were centrifuged again at 1600 rpm for 7 min, the supernatant removed, and the cells resuspended.

mononuclear leukocytes = experiment: Mononuclear leukocyte labeling yield; type: cell-based; settings: harvested from 20 mL canine blood via isolymph method
Description: Using ^125 I-4b and ^131 I-4b, mononuclear leukocytes harvested from 20 mL canine blood via the isolymph method (sodium diatrizoste and Ficol 400, d=1.077) were labeled in 77% and 85% yields, respectively. Thus, the present compounds can label both lymphocytes and mixed leukocytes in high yields, and that the latter can be used to image sites of focal inflammation.

[5] = Viability of labeled lymphocytes (Trypan Blue exclusion test); type: cell-based, dog and rat; settings: before and after radiolabeling
Description: as §2

CCCCCCN(CCCCCC)c1ccc(/C=C/c2cc[n+](C/C=C/[125I])cc2)cc1 [^125 I-4b, 3-[4-[2-(N,N-dihexylamino)phenyl]ethyenyl]pyridino-E-1-[^125 I]-iodo-propene]
effect of labeling on cell survival (rat splenic lymphocytes [1]): the labeling did not affect cell survival
cytotoxicity [2]: 12%
131I/111In or 125I/111In in aspirate ([3]; Experiment 1): 1.65
% aspirate radioactivity cell bound ([3]; Experiment 1): 98%
% inj. dose in abscess aspirate ([3]; Experiment 1, injected 84 μCi 125I-4b, 500 μCi 111In-oxine, Diluent C): 0.594%
131I/111In or 125I/111In in aspirate ([3]; Experiment 2): 6.0
% aspirate radioactivity cell bound ([3]; Experiment 2): 96%
% inj. dose in abscess aspirate ([3]; Experiment 2, injected 66 μCi 125I-4b, 312 μCi 111In-oxine): 0.527%
localization of labeled leukocytes in induced inflammatory site/abscess, compared with 111In-oxine (111In-labeled) leukocytes ([3]; sodium urate induced abscess, dog): higher degree of localization
radioactivity bound to the lymphocytes (labeling yield) (rat splenic lymphocytes [4]; Example 11, 5 million lymphocytes, saline, 15.6 uCi, 20 min, room temperature): 77%
radioactivity bound to the lymphocytes (rat splenic lymphocytes [4]; Example 11, of 15.6 uCi added): 11.9 uCi
Labeling Yield (mixed leukocytes; 1.5 ml saline, pellet not washed): 80%
Labeling Yield (mixed leukocytes; 1.5 ml saline, pellet washed with 1×10 mL saline): 84%
Labeling Yield (mixed leukocytes; 1.5 ml saline, pellet washed with 2×10 mL saline): 82%
Labeling Yield (mixed leukocytes; Table 3 Experiment 1, 4b 250 Ci/mmol, Diluent C after 2 × 10 mL saline washes): 84%
Labeling Yield (mixed leukocytes; Table 3 Experiment 2, 4b footnotes a,c (250 / 1000 Ci/mmol)): 88%
Labeling Yield (mixed leukocytes; unwashed, 1.5 mL 10% PPP in saline): 83%
Mononuclear leukocyte labeling yield (mononuclear leukocytes): 77%

CCCCN(CCCC)c1ccc(/C=C/c2cc[n+](C/C=C/[125I])cc2)cc1 [Compound 4a]
viability [5]: > 90%
Lymphocyte labeling (in words) (rat splenic lymphocytes [4]; PBLs from dogs and rats and rat splenic lymphocytes): high yields
Lymphocyte labeling yield (rat splenic lymphocytes [4]; Rat spleen, Lympholyte-Rat, 63-300 × 10^6 cells, PBS, 125I, average): 71%
Mixed leukocyte labeling yield (mixed leukocytes; 10% PPP in saline): 41%
Mixed leukocyte labeling yield (mixed leukocytes; Diluent C): 75%
Mixed leukocyte labeling yield (mixed leukocytes; saline, 2 washes of pellet): 72%
Mixed leukocyte labeling yield (mixed leukocytes; saline, no washes of pellet): 71%
Leukocyte labeling (in words) (mixed leukocytes; Diluent C, or saline with or without washes of the cell pellet): labeled leukocytes in high yield

Source: patent publication US5840859A, “(Aminostyryl)pyridinium compounds for radiolabelling cell membranes” (Research Corporation Technologies, Inc., priority 1996, dated 1998)
